This is an account of results in patent publication US8119819B2 (Chugai Seiyaku Kabushiki Kaisha, priority 2001, dated 2012).

The target in one test is T1, malonyl-CoA decarboxylase prepared from rat heart (Rattus norvegicus, UniProt Q920F5).
T1 construct: malonyl-CoA decarboxylase prepared from rat heart; from tissue; host or cells: rat heart
T1 sequence (Q920F5 39-492): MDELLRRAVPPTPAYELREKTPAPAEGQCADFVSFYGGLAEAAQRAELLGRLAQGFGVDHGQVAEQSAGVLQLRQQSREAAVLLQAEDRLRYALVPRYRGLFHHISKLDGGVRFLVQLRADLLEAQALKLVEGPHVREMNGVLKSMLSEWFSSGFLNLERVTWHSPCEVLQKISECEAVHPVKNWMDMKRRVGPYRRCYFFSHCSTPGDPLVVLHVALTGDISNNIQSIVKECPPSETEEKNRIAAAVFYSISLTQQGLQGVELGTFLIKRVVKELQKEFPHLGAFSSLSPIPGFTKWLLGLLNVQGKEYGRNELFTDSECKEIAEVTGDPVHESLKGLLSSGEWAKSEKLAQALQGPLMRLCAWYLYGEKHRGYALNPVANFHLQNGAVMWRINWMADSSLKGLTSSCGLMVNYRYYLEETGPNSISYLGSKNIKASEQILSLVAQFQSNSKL
Briefly: In Vitro MCD inhibitory assay (spectrophotometric, 96 well). Type of test: biochemical. The following applies: read-out: IC50 of the MCD inhibitors. The procedure: The following reagents are added into a 96 well titer plate: Tris-HCl buffer, 20 μL; DTE, 10 μL; 1-malate, 20 μL; NAD, 10 μL; NADH, 25 μL; water, 80 μL; malic dehydrogenase, 5 μL. The contents are mixed and incubated for 2 min followed by the addition of 5 μL of citrate synthase.
For orientation: IC50 means the midpoint of a concentration-inhibition curve. For the compound `CCCCN(C(=O)NCC)c1ncc(C(O)(C(F)(F)F)C(F)(F)F)s1` [Example 1-3-1, N-butyl-N′-ethyl-N-{5-[2,2,2-trifluoro-1-hydroxy-1-(trifluoromethyl)ethyl]-1,3-thiazol-2-yl}urea], the IC50 amounted to 213 nM.

As to `O=CN(Cc1ccncc1)c1ncc(C(O)(C(F)(F)F)C(F)(F)F)s1` [Example 1-4, pyridin-4-yl methyl {5-[2,2,2-trifluoro-1-hydroxy-1-(trifluoromethyl)ethyl]-1,3-thiazol-2-yl}formamide], the IC50 is 463 nM.

Turning to `O=S(=O)(Nc1ncc(C(O)(C(F)(F)F)C(F)(F)F)s1)c1ccc(Cl)cc1` [Example 3, 4-chloro-N-{5-[2,2,2,-trifluoro-1-hydroxy-1-(trifluoromethyl)ethyl]-1,3-thiazol-2-yl}benzenesulfonamide], the half-maximal inhibitory concentration (IC50) was found to be 124 nM.

Take `CN(CC#CC(O)(C(F)(F)F)C(F)(F)F)C(=O)CCc1ccccc1` [Example 7-1, N-methyl-3-phenyl-N-[5,5,5-trifluoro-4-hydroxy-4-(trifluoromethyl)pent-2-ynyl]propanamide]: the IC50 was determined as 739 nM.

Consider `CC(C)N(C(=O)C1=NOC(C(O)(C(F)(F)F)C(F)(F)F)C1)C(C)C` (stereo not drawn) [Example 8-3-3], for which the concentration for half-maximal inhibition (IC50) was determined as 127 nM.

`OC(C1CC(N2CCCC2)=NO1)(C(F)(F)F)C(F)(F)F` (stereo not drawn) [Example 9-2, 1,1,1,3,3,3-hexafluoro-2-(3-pyrrolidin-1-4,5-dihydroisoxazol-5-yl)propan-2-ol]: the IC50 is 3710 nM.

As for `Cc1ccc(C2=NOC(C(O)(C(F)(F)F)C(F)(F)F)C2)cc1` (stereo not drawn) [Example 11-1, 1,1,1,3,3,3-hexafluoro-2-[3-(4-methylphenyl)-4,5-dihydroisoxazol-5-yl]propan-2-ol], the IC50 was 388 nM.

A further test deals with human breast cancer cells.
Experiment: not given
The following applies: breast carcinoma cells; cited from earlier work.
For `CCCCCCCCCCCCCCOc1ccc(C(=O)O)o1` [TOFA, 5-(tetradecyloxy)-2-furoic acid], the malonyl-CoA level was 60 % of the control.

The same test, now with this note: human breast cancer cells and xenografts; cited from earlier work.
Turning to `CCCCCCCCCCCCCCOc1ccc(C(=O)O)o1` [TOFA, 5-(tetradecyloxy)-2-furoic acid], the antitumor activity entry is “does not show any antitumor activity”.
